Like-named read-outs stand apart in the source and are kept apart here.
Legend:
[1] = molecular target: T1, CDK12 (aa686-1082)/Cyclin K complex (Homo sapiens, UniProt Q9NYV4); test: CDK12 inhibition assay (Caliper/LabChip EZ Reader kinase assay); format: biochemical; conditions: Table 1; CDK12 (aa686-1082)/Cyclin K 50 nM, ATP 2 mM, 3 hr at 27° C.
T1 construct: CDK12 (aa686-1082)/Cyclin K complex

[2] = tested on: A673 cells; test: Inhibition of proliferation of A673 cells (CyQUANT, 72 hour); format: cell-based, human; conditions: A673 cells, 72 hour, CyQUANT, read-out: Inhibition of Proliferation of A673 Cells (calculated IC50)
How it was run: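 Proliferation read-out by CyQUANT after a 72 h exposure, compounds spanning 4 μM–[…] in half-log steps. A673 cells cultured at 37° C under 5% CO2 in DMEM supplemented with 10% FBS plus 1 mM sodium pyruvate.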

[3] = tested on: HCC70 cells; test: Inhibition of proliferation of HCC70 cells (CyQUANT Direct Cell Proliferation Assay, 72 hour); format: cell-based, human; conditions: read-out: Inhibition of Proliferation of HCC70 Cells (calculated IC50)
How it was run: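 Human triple-negative breast cancer HCC70 cells cultured at 37° C, 5% CO2, with compound for 72 hour. Anti-proliferative effect read by CyQUANT Direct Cell Proliferation Assay. Dinaciclib, a CDK inhibitor analog and triptolide served as positive controls.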

[4] = molecular target: CDK7/Cyclin H/MAT1 complex (Homo sapiens, UniProt P50613); test: CDK7 inhibition assay (Caliper/LabChip EZ Reader kinase assay); format: biochemical; conditions: Table 1; CDK7/Cyclin H/MAT1 6 nM, ATP 2 mM, 35 min at 27° C.
CDK7/Cyclin H/MAT1 complex, sequence (P50613 whole entry, species assumed): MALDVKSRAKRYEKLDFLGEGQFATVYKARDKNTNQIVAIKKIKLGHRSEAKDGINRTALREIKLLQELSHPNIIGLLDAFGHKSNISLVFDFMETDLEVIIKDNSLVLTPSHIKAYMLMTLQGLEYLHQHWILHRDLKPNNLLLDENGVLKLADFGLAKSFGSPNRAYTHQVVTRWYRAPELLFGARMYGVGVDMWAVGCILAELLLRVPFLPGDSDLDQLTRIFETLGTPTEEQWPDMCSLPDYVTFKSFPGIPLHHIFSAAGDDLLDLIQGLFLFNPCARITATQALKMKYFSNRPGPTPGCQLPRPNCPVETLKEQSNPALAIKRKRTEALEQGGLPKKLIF
CDK7/Cyclin H/MAT1 complex, sequence (P51946 whole entry partner, species assumed): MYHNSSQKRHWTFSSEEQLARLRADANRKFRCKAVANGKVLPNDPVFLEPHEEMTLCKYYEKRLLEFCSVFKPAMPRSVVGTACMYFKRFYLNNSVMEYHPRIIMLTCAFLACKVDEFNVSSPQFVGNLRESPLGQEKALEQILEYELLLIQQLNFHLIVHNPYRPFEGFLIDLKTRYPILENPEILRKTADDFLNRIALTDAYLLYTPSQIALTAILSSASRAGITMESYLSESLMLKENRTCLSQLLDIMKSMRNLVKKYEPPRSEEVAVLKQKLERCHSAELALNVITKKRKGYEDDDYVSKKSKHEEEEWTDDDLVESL
CDK7/Cyclin H/MAT1 complex, sequence (P51948 whole entry partner, species assumed): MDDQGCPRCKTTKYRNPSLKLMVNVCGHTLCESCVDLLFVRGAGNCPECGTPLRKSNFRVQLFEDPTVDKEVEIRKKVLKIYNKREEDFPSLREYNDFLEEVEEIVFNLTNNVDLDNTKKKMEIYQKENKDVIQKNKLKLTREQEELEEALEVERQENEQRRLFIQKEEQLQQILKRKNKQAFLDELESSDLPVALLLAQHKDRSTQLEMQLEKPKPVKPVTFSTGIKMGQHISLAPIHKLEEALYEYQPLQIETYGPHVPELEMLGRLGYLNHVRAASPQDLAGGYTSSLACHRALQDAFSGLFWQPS
How it was run: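 A Perkin Elmer Caliper/LabChip EZ Reader (Waltham, MA) platform served as the basis for this CDK7 kinase inhibition assay. The work was carried out by Biortus Biosciences, located in Jiangyin, Jiangsu Province, P.R. of China. Each CDK studied had its own kinase assay, and compounds were evaluated for their ability to block CDK7 activity.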

[5] = molecular target: CDK2/Cyclin E1 complex (Homo sapiens, UniProt P24941); test: CDK2 inhibition assay (Caliper/LabChip EZ Reader kinase assay); format: biochemical; conditions: Table 1; CDK2/Cyclin E1 0.5 nM, ATP 2 mM, 35 min at 27° C.
How it was run: (§1)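 Activity read as fluorescent peptide conversion on a LabChip EZ Reader. For CDK2/Cyclin E1 (0.5 nM), substrate was 5-FAM-CDK7tide (2 μM) with 2 mM MgCl2; for CDK9/Cyclin T1 (8 nM), 5-FAM-CDK9tide (2 μM) with 10 mM MgCl2.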

[6] = molecular target: CDK9/Cyclin T1 complex (Homo sapiens, UniProt P50750); test: CDK9 inhibition assay (Caliper/LabChip EZ Reader kinase assay); format: biochemical; conditions: Table 1; CDK9/Cyclin T1 8 nM, ATP 2 mM, 15 min at 27° C.
CDK9/Cyclin T1 complex, sequence (P50750 whole entry, species assumed): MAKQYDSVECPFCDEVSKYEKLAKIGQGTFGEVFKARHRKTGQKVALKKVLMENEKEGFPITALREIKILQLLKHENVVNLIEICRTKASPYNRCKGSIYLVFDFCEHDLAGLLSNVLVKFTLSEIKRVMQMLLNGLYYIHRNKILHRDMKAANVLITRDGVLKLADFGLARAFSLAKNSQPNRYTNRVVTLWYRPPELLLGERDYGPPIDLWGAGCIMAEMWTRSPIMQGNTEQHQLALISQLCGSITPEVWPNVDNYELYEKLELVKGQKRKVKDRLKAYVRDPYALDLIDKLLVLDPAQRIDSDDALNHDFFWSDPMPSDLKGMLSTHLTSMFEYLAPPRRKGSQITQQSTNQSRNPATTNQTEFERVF
CDK9/Cyclin T1 complex, sequence (O60563 whole entry partner, species assumed): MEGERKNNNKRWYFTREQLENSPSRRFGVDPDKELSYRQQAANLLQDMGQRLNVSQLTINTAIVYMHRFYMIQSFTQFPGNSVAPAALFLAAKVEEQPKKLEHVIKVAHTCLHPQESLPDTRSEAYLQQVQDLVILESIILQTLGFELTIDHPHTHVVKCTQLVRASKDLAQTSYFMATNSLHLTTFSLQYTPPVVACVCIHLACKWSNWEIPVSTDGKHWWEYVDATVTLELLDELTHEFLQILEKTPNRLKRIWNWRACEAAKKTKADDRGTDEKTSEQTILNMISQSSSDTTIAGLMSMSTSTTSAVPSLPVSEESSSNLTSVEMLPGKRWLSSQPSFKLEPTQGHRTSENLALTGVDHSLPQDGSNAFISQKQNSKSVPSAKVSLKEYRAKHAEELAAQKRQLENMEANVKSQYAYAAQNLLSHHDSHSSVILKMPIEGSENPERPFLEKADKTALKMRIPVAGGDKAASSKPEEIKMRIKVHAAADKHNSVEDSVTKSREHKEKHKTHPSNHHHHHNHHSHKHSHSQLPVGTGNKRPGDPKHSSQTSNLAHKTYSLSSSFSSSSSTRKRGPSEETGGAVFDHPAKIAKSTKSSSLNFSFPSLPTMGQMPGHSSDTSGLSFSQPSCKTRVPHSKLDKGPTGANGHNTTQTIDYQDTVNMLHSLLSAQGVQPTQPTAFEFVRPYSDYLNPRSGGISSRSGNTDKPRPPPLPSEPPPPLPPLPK
How it was run: as §1

T1 sequence (Q9NYV4 686-1082, species assumed): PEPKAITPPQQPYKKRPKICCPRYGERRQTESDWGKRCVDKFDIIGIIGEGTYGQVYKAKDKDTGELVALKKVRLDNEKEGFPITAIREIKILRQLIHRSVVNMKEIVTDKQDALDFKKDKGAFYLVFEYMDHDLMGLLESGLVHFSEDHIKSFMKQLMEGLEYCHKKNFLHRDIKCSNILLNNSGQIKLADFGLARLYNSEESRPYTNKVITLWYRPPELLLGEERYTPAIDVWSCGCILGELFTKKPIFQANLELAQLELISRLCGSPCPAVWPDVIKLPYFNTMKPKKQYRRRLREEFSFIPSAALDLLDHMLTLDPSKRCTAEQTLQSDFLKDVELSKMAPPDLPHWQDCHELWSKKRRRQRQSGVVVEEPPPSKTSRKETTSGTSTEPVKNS
T1 sequence (O75909 whole entry partner, species assumed, the tested form may be a part): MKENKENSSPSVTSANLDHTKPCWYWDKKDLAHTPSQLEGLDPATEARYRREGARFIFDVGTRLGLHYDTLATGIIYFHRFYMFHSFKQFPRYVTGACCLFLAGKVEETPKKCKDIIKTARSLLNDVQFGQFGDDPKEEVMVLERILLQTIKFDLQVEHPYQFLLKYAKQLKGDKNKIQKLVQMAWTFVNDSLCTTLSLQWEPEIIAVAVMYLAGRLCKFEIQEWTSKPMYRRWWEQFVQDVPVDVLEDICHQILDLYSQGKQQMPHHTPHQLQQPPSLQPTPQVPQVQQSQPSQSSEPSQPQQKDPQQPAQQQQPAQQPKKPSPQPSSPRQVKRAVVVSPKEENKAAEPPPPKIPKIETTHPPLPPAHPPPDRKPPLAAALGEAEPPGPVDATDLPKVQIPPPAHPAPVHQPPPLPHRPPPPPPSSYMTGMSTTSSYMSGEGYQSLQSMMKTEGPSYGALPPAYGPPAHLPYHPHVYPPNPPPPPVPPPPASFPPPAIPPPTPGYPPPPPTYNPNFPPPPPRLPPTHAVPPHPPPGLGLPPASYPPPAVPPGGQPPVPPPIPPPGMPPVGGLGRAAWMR

SMILES | IC50 [1] | IC50 [2] | IC50 ([3]; Homo sapiens, HCC70, 72 h) | IC50 [4] | IC50 [5] | IC50 [6] | IC50 ([2]; Homo sapiens, A673, 72 h) | IC50 [3]
O=C(C1CCC(Nc2ncc(C(F)(F)F)c(-c3c[nH]c4ccccc34)n2)CN1)N1CCC(O)C1 (mixture of isomers) [Compound 250] | 200 to 5000 nM | 200 to 5000 nM | 1000 to 5000 nM | < 20 nM | 200 to 5000 nM | > 5000 nM | – | –
CC1(O)CCN(C(=O)c2ccc3c(-c4nc(N[C@H]5CCCNC5)ncc4C(F)(F)F)c[nH]c3c2)C1 (single isomer, unassigned) [Compound 221] | > 5000 nM | – | 100 to 1000 nM | < 20 nM | > 5000 nM | > 5000 nM | 200 to 5000 nM | –
Cc1n[nH]cc1-c1cccc2c(-c3nc(NC4CCCNC4)ncc3C(F)(F)F)c[nH]c12 (stereo in doubt) [Compound 175] | 200 to 5000 nM | – | 1000 to 5000 nM | < 20 nM | 200 to 5000 nM | 20 to 200 nM | < 20 nM | –
FC(F)(F)c1cnc(N[C@H]2CCCNC2)nc1-c1n[nH]c2ccccc12 [Compound 103] | 20 to 200 nM | – | < 100 nM | < 20 nM | 200 to 5000 nM | 200 to 5000 nM | 20 to 200 nM | –
CCc1cnc(NC2CCCNC2)nc1-c1c[nH]c2c(F)cccc12 (centres unmarked) [Compound 144] | 200 to 5000 nM | – | 100 to 1000 nM | < 20 nM | 200 to 5000 nM | 200 to 5000 nM | 20 to 200 nM | –
O=C1CC[C@H](Nc2ncc(Cl)c(-c3c[nH]c4ccccc34)n2)CN1 [Compound 159] | 200 to 5000 nM | – | 1000 to 5000 nM | 20 to 200 nM | 20 to 200 nM | 200 to 5000 nM | 200 to 5000 nM | –
FC(F)(F)c1cnc(N[C@H]2CCCNC2)nc1-c1c[nH]c2c(-c3cn[nH]c3)cccc12 [Compound 170] | 20 to 200 nM | – | < 100 nM | < 20 nM | 200 to 5000 nM | 200 to 5000 nM | < 20 nM | –
CN1CCN(c2cccc3c(-c4nc(N[C@H]5CCCNC5)ncc4C(F)(F)F)c[nH]c23)C1=O [Compound 176] | 200 to 5000 nM | – | 100 to 1000 nM | < 20 nM | 200 to 5000 nM | 200 to 5000 nM | < 20 nM | –
FC(F)(F)c1cnc(N[C@H]2CCCNC2)nc1-c1c[nH]c2c(-c3ccnnc3)cccc12 [Compound 180] | 20 to 200 nM | – | < 100 nM | < 20 nM | 20 to 200 nM | 200 to 5000 nM | < 20 nM | –
OC1CCC(c2cccc3c(-c4nc(N[C@H]5CCCNC5)ncc4C(F)(F)F)c[nH]c23)CC1 (some centres unmarked) [Compound 185] | 200 to 5000 nM | < 20 nM | – | < 20 nM | 20 to 200 nM | 200 to 5000 nM | – | < 100 nM
CC1(C)CC[C@H](Nc2ncc(C(F)(F)F)c(-c3c[nH]c4ccccc34)n2)CN1 [Compound 190] | 200 to 5000 nM | – | 100 to 1000 nM | < 20 nM | 200 to 5000 nM | 200 to 5000 nM | < 20 nM | –
CS(=O)(=O)c1ccc2c(-c3nc(N[C@H]4CCCNC4)ncc3C(F)(F)F)c[nH]c2c1 [Compound 199, 4-(6-methylsulfonyl-1H-indol-3-yl)-N-[(3S)-3-piperidyl]-5-(trifluoromethyl) pyrimidin-2-amine] | 200 to 5000 nM | – | 100 to 1000 nM | < 20 nM | 200 to 5000 nM | 200 to 5000 nM | < 20 nM | –
CS(=O)(=O)c1c(C#N)ccc2c(-c3nc(N[C@H]4CCCNC4)ncc3C(F)(F)F)c[nH]c12 [Compound 232, 7-methylsulfonyl-3-[2-[[(3S)-3-piperidyl]amino]-5-(trifluoromethyl)pyrimidin-4-yl]-1H-indole-6-carbonitrile] | 200 to 5000 nM | – | < 100 nM | < 20 nM | 200 to 5000 nM | 200 to 5000 nM | < 20 nM | –
CCc1cnc(N[C@H]2CCCNC2)nc1-c1c[nH]c2cc(C#N)ccc12 [Compound 246] | > 5000 nM | 200 to 5000 nM | – | < 20 nM | > 5000 nM | > 5000 nM | – | 100 to 1000 nM
N#Cc1ccc2c(-c3nc(N[C@H]4CCCNC4)ncc3C(F)(F)F)c[nH]c2n1 [Compound 251, 3-[2-[[(3S)-3-piperidyl]amino]-5-(trifluoromethyl)pyrimidin-4-yl]-1H-pyrrolo [2,3-b] pyridine-6-carbonitrile] | 200 to 5000 nM | – | < 100 nM | < 20 nM | 200 to 5000 nM | 200 to 5000 nM | < 20 nM | –
N#Cc1ccc2c(-c3nc(N[C@H]4CCCNC4)ncc3C(F)(F)F)c[nH]c2c1-c1ccnnc1 [Compound 261, 3-[2-[[(3S)-3-piperidyl]amino]-5-(trifluoromethyl)pyrimidin-4-yl]-7-pyridazin-4-yl-1H-indole-6-carbonitrile] | 200 to 5000 nM | – | < 100 nM | 20 to 200 nM | 200 to 5000 nM | 200 to 5000 nM | < 20 nM | –
CCc1cnc(N[C@H]2CCCNC2)nc1-c1c[nH]c2c(S(C)(=O)=O)c(C#N)ccc12 [Compound 263, 3-[5-ethyl-2-[[(3S)-3-piperidyl]amino]pyrimidin-4-yl]-7-methylsulfonyl-1H-indole-6-carbonitrile] | > 5000 nM | – | 100 to 1000 nM | < 20 nM | > 5000 nM | > 5000 nM | 20 to 200 nM | –
C=CC(=O)N1CCC(CO[C@H]2CNC[C@@H](Nc3ncc(C(F)(F)F)c(-c4c[nH]c5c(S(C)(=O)=O)cccc45)n3)C2)CC1 [Compound 264] | 200 to 5000 nM | – | 100 to 1000 nM | 20 to 200 nM | > 5000 nM | > 5000 nM | < 20 nM | –
FC(F)(F)c1cnc(N[C@@H]2CNC[C@H](c3nnc4ccccn34)C2)nc1-c1c[nH]c2ccccc12 [Compound 267] | 200 to 5000 nM | < 20 nM | – | 20 to 200 nM | 200 to 5000 nM | 200 to 5000 nM | – | < 100 nM
Cn1cc(-c2nc(NC3CCCNC3)ncc2C(F)(F)F)c2ccc(C#N)nc21 (centres unmarked) [Compound 273] | > 5000 nM | – | 1000 to 5000 nM | 200 to 5000 nM | > 5000 nM | > 5000 nM | 200 to 5000 nM | –
CC1(C)CNC[C@@H](Nc2ncc(Cl)c(-c3c[nH]c4c(S(C)(=O)=O)c(C#N)ccc34)n2)C1 [Compound 382, 3-[5-chloro-2-[[(3S)-5,5-dimethyl-3-piperidyl]amino]pyrimidin-4-yl]-7-methylsulfonyl-1H-indole-6-carbonitrile] | 200 to 5000 nM | – | < 100 nM | < 20 nM | 200 to 5000 nM | 200 to 5000 nM | – | –
